Data published in patent US9102648B1, “Bioavailable diacylhydrazine ligands for modulating the expression of exogenous genes via an ecdysone receptor complex” (Intrexon Corporation, priority 2003, dated 2015).
Read-outs that look alike come from different tables or passages of the source.

Molecular target: GAL4 DBD (1-147)-CfEcR(DEF)/VP16AD-βRXREF-LmUSPEF (Choristoneura fumiferana, UniProt O77240)
Experiment: cell-based
Settings: for 27-63 assay Rel Max FI: maximum fold induction at any concentration relative to that of GS-E ligand, CHO 27-63 cells; for fold induction at 33 µM: read-out: Fold Induction, 27-63 Assay, 33 uM; for Fold Induction, 27-63 Assay, 3.3 uM: 3.3 uM ligand; for Fold Induction, 27-63 Assay, 3.3 uM / Fold Induction, 27-63 Assay, 33 uM: RLU ligand treated / RLU DMSO treated cells; for Fold Induction, 27-63 Assay, 33 uM: 33 uM ligand
Description: GAL4 DBD (1-147)-CfEcR(DEF)/VP16AD-βRXREF-LmUSPEF:
The wild-type D, E, and F domains from spruce budworm Choristoneura fumiferana EcR (“CfEcR-DEF”; SEQ ID NO: 1) were fused to a GAL4 DNA binding domain (“Gal4DBD1-147”; SEQ ID NO: 2) and placed under the control of a phosphoglycerate kinase promoter (“PGK”; SEQ ID NO: 3). Helices 1 through 8 of the EF domains from Homo sapiens RXRβ (“HsRXRβ-EF”; nucleotides 1-465 of SEQ ID NO: 4) and helices 9 through 12 of the EF domains of Locusta migratoria Ultraspiracle Protein (“LmUSP-EF”; nucleotides 403-630 of SEQ ID NO: 5) were fused to the transactivation domain from VP16 (“VP16AD”; SEQ ID NO: 6) and placed under the control of an elongation factor-1α promoter (“EF-1α”; SEQ ID NO: 7). Five consensus GAL4 response element binding sites (“5XGAL4RE”; comprising 5 copies of a GAL4RE comprising SEQ ID NO: 8) were fused to a synthetic TATA minimal promoter (SEQ ID NO: 9) and placed upstream of the luciferase reporter gene (SEQ ID NO: 10).
CHO cells were transiently transfected with transcription cassettes for GAL4 DBD (1-147) CJEcR(DEF) and for VP16AD βRXREF-LmUSPEF controlled by ubiquitously active cellular promoters (PGK and EF-la, respectively) on a single plasmid. Stably transfected cells were selected by Zeocin resistance. Individually isolated CHO cell clones were transiently transfected with a GAL4 RE-luciferase reporter (pFR Luc). 27-63 clone was selected using Hygromycin.
Cells were trypsinized and diluted to a concentration of 2.5×10^4 cells mL. 100 μL of cell suspension was placed in each well of a 96 well plate and incubated at 37° C. under 5% CO2 for 24 h. Ligand stock solutions were prepared in DMSO and diluted 300 fold for all treatments. Dose response testing consisted of 8 concentrations ranging from […] to 0.01 μM.
Luciferase reporter gene expression was measured 48 h after cell treatment using Bright-Glo™ Luciferase Assay System from Promega (E2650). Luminescence was detected at room temperature using a Dynex MLX microtiter plate luminometer.
Each assay was conducted in two separate wells, and the two values were averaged. Fold inductions were calculated by dividing relative light units (“RLU”) in ligand treated cells with RLU in DMSO treated cells. EC50s were calculated from dose response data using a three-parameter logistic model.

[1] = read-out: 27-63 assay EC50, CHO 27-63 stable cell line, luciferase reporter, average of two wells

CCCC(N(NC(=O)c1ccc2c(c1C)OCCO2)C(=O)c1cc(OC)c(C)c(OC)c1)C(C)(C)C (stereo not drawn) [RG-115865, 3,5-Dimethoxy-4-methyl-benzoic acid N-(1-tert-butyl-butyl)-N′-(5-methyl-2,3-dihydrobenzo[1,4]dioxine-6-carbonyl)-hydrazide]
EC50: 10 nM
27-63 assay Rel Max FI: 1.246
fold induction at 33 µM: 76

CCc1ccc(C(=O)NN(C(=O)c2cccnc2OC)C(c2ccccc2)C(C)(C)C)cc1 (stereo not drawn) [RG-115848]
Fold Induction, 27-63 Assay, 3.3 uM (average of two wells): 1346
Fold Induction, 27-63 Assay, 33 uM (average of two wells): 1156
27-63 assay Rel Max FI: 0.494
EC50 [1]: 1290 nM

COc1cc(C(=O)N(NC(=O)c2cccc(OC)c2C)C(C)(C)C)c(=O)[nH]n1 [RG-115863]
Fold Induction, 27-63 Assay, 3.3 uM (average of two wells): 1
Fold Induction, 27-63 Assay, 33 uM (average of two wells): 804
27-63 assay Rel Max FI: 0.154
EC50 [1]: > 33000 nM

COc1cccc(C(=O)NN(C(=O)c2ccc(C(F)(F)F)nc2OC)C(C)(C)C)c1C [RG-115834]
Fold Induction, 27-63 Assay, 3.3 uM (average of two wells): 1900
Fold Induction, 27-63 Assay, 33 uM (average of two wells): 1837
27-63 assay Rel Max FI: 0.733
EC50 [1]: 1170 nM

CCCCC(N(NC(=O)c1cccc(OC)c1C)C(=O)c1cc(C)cc(C)c1)C(C)(C)C (stereo not drawn) [RG-115851, 3,5-dimethyl-benzoic acid N-(1-tert-butyl-pentyl)-N′-(3-methoxy-2-methyl-benzoyl)-hydrazide]
EC50: 20 nM
27-63 assay Rel Max FI: 1

CCCC(N(NC(=O)c1ccc2c(c1CC)OCCO2)C(=O)c1cc(OC)c(C)c(OC)c1)C(C)(C)C (stereo not drawn) [RG-115867, 3,5-Dimethoxy-4-methyl-benzoic acid N-(1-tert-butyl-butyl)-N′-(5-ethyl-2,3-dihydro-benzo[1,4]dioxine-6-carbonyl)-hydrazide]
fold induction at 33 µM: 654

CCCCC(N(NC(=O)c1ccc(CC)cc1)C(=O)c1cc(OC)c(C)c(OC)c1)C(C)(C)C (stereo not drawn) [RG-115841]
Fold Induction, 27-63 Assay, 3.3 uM (average of two wells): 1407
Fold Induction, 27-63 Assay, 33 uM (average of two wells): 437
27-63 assay Rel Max FI: 0.610
EC50 [1]: 2020 nM

COc1cc(C(=O)N(NC(=O)c2cccc(OC)c2C)C(C)(C)C)c(OC)nn1 [RG-115850]
Fold Induction, 27-63 Assay, 3.3 uM (average of two wells): 1
Fold Induction, 27-63 Assay, 33 uM (average of two wells): 23
27-63 assay Rel Max FI: 0.001
EC50 [1]: > 33000 nM

CCc1ccc(C(=O)NN(C(=O)c2cc(C)cc(C)c2)C(c2ccccc2)C(C)(C)C)cc1 (stereo not drawn) [RG-115846]
Fold Induction, 27-63 Assay, 3.3 uM (average of two wells): 1643
Fold Induction, 27-63 Assay, 33 uM (average of two wells): 645
27-63 assay Rel Max FI: 0.846
EC50 [1]: 95 nM

CCc1ccc(C(=O)NN(C(=O)c2cc(OC)c(C)c(OC)c2)C(c2ccccc2)C(C)(C)C)cc1 (racemic) [RG-115847]
Fold Induction, 27-63 Assay, 3.3 uM (average of two wells): 2729
Fold Induction, 27-63 Assay, 33 uM (average of two wells): 848
27-63 assay Rel Max FI: 1.120
EC50 [1]: 1100 nM

CCCCC(N(NC(=O)c1ccc(CC)cc1)C(=O)c1cc(C)cc(C)c1)C(C)(C)C (stereo not drawn) [RG-115840]
Fold Induction, 27-63 Assay, 3.3 uM (average of two wells): 1612
Fold Induction, 27-63 Assay, 33 uM (average of two wells): 263
27-63 assay Rel Max FI: 0.776
EC50 [1]: 110 nM

CCc1ccc(C(=O)NN(C(=O)c2cc(C)cc(C)c2)C(CC)C(C)(C)C)cc1 (stereo not drawn) [RG-115836]
Fold Induction, 27-63 Assay, 3.3 uM (average of two wells): 1822
Fold Induction, 27-63 Assay, 33 uM (average of two wells): 823
27-63 assay Rel Max FI: 0.808
EC50 [1]: 98 nM

COc1cccc(C(=O)NN(C(=O)c2ccnnc2)C(C)(C)C)c1C [RG-115862]
Fold Induction, 27-63 Assay, 3.3 uM (average of two wells): 1
Fold Induction, 27-63 Assay, 33 uM (average of two wells): 243
27-63 assay Rel Max FI: 0.048
EC50 [1]: > 33000 nM

CCc1ccc(C(=O)NN(C(=O)c2cccnc2OC)C(CC)C(C)(C)C)cc1 (stereo not drawn) [RG-115837]
Fold Induction, 27-63 Assay, 3.3 uM (average of two wells): 1474
Fold Induction, 27-63 Assay, 33 uM (average of two wells): 1156
27-63 assay Rel Max FI: 0.569
EC50 [1]: 1110 nM

CCc1c(C(=O)NN(C(=O)c2cc(OC)c(C)c(OC)c2)C(CC)C(C)(C)C)ccc2c1OCCO2 (stereo not drawn) [RG-115859, 3,5-Dimethoxy-4-methyl-benzoic acid N′-(5-ethyl-2,3-dihydro-benzo[1,4]dioxine-6-carbonyl)-N-(1-ethyl-2,2-dimethyl-propyl)-hydrazide]
EC50: 7 nM
27-63 assay Rel Max FI: 1.218
fold induction at 33 µM: 1060

CCCC(N(NC(=O)c1ccc2c(c1CC)OCCO2)C(=O)c1cc(C)cc(C)c1)C(C)(C)C (stereo not drawn) [RG-115866, 3,5-Dimethyl-benzoic acid N-(1-tert-butyl-butyl)-N′-(5-ethyl-2,3-dihydro-benzo[1,4]dioxine-6-carbonyl)-hydrazide]
EC50: 10 nM
27-63 assay Rel Max FI: 0.999
fold induction at 33 µM: 3

COc1cccc(C(=O)NN(C(=O)c2ccc(C(F)(F)F)n(C)c2=O)C(C)(C)C)c1C [RG-115835]
Fold Induction, 27-63 Assay, 3.3 uM (average of two wells): 3
Fold Induction, 27-63 Assay, 33 uM (average of two wells): 1895
27-63 assay Rel Max FI: 0.731
EC50 [1]: 20000 nM

CCCCC(N(NC(=O)c1cccc(OC)c1C)C(=O)c1cc(OC)c(C)c(OC)c1)C(C)(C)C (stereo not drawn) [RG-115852, 3,5-dimethoxy-4-methyl-benzoic acid N-(1-tert-butyl-pentyl)-N′-(3-methoxy-2-methyl-benzoyl)-hydrazide]
EC50: 70 nM
27-63 assay Rel Max FI: 1

COc1cc(C(=O)N(NC(=O)c2cccc(OC)c2C)C(C)(C)C)nc(OC)n1 [RG-115849]
Fold Induction, 27-63 Assay, 3.3 uM (average of two wells): 1
Fold Induction, 27-63 Assay, 33 uM (average of two wells): 231
27-63 assay Rel Max FI: 0.007
EC50 [1]: > 33000 nM
